# Results from ChEMBL document CHEMBL5252512, “Recent Progress in the Development of HIV-1 Protease Inhibitors for the Treatment of HIV/AIDS” (J Med Chem, 2016).
# Experiments:
# [1] = test system: Human immunodeficiency virus 1; experiment: Antiviral activity against multidrug-resistant HIV1-G infected in phytohemagglutinin-activated human PBMC cells assessed as inhibition of virus-induced cytopathic effect measured after 7 days by MTT assay; format: functional, organism-based; conditions: Human immunodeficiency virus 1, G, 168 h
# [2] = test system: Human immunodeficiency virus 1; experiment: Antiviral activity against multidrug-resistant HIV1-TM infected in phytohemagglutinin-activated human PBMC cells assessed as inhibition of virus-induced cytopathic effect measured after 7 days by MTT assay; format: functional, organism-based; conditions: Human immunodeficiency virus 1, TM, 168 h
# [3] = test system: Human immunodeficiency virus 1; experiment: Antiviral activity against multidrug-resistant HIV1-B infected in phytohemagglutinin-activated human PBMC cells assessed as inhibition of virus-induced cytopathic effect measured after 7 days by MTT assay; format: functional, organism-based; conditions: Human immunodeficiency virus 1, B, 168 h
# [4] = test system: Human immunodeficiency virus 1; experiment: Antiviral activity against multidrug-resistant HIV1-MM infected in phytohemagglutinin-activated human PBMC cells assessed as inhibition of virus-induced cytopathic effect measured after 7 days by MTT assay; format: functional, organism-based; conditions: Human immunodeficiency virus 1, MM, 168 h
# [5] = test system: Human immunodeficiency virus 1; experiment: Antiviral activity against wild type HIV1 ERS104pre infected in human PBMC cells assessed as inhibition of virus-induced cytopathic effect measured after 7 days by MTT assay; format: functional, organism-based; conditions: Human immunodeficiency virus 1, ERS104pre, 168 h
# [6] = test system: Human immunodeficiency virus 1; experiment: Antiviral activity against multidrug-resistant HIV1-C infected in phytohemagglutinin-activated human PBMC cells assessed as inhibition of virus-induced cytopathic effect measured after 7 days by MTT assay; format: functional, organism-based; conditions: Human immunodeficiency virus 1, C, 168 h
# [7] = test system: Human immunodeficiency virus 1; experiment: Antiviral activity against multidrug-resistant HIV1-JSL infected in phytohemagglutinin-activated human PBMC cells assessed as inhibition of virus-induced cytopathic effect measured after 7 days by MTT assay; format: functional, organism-based; conditions: Human immunodeficiency virus 1, JSL, 168 h
# [8] = test system: Human immunodeficiency virus 1; experiment: Antiviral activity against darunavir-resistant HIV1 10P infected in phytohemagglutinin-activated human PBMC cells assessed as inhibition of virus-induced cytopathic effect measured after 7 days by MTT assay; format: functional, organism-based; conditions: Human immunodeficiency virus 1, 10P, 168 h
# [9] = test system: Human immunodeficiency virus 1; experiment: Antiviral activity against darunavir-resistant HIV1 20P infected in phytohemagglutinin-activated human PBMC cells assessed as inhibition of virus-induced cytopathic effect measured after 7 days by MTT assay; format: functional, organism-based; conditions: Human immunodeficiency virus 1, 20P, 168 h
# [10] = molecular target: T1, Human immunodeficiency virus type 1 protease (Human immunodeficiency virus 1, UniProt Q72874); experiment: Inhibition of recombinant HIV1 Protease
# [11] = molecular target: T1, Human immunodeficiency virus type 1 protease; experiment: Binding affinity to HIV1 protease assessed as inhibition constant
# [12] = test system: Human immunodeficiency virus 1; experiment: Ratio of EC50 for antiviral activity against HIV1-TM to EC50 for antiviral activity against wild type HIV1 ERS104pre; format: functional
# [13] = test system: Human immunodeficiency virus 1; experiment: Ratio of EC50 for antiviral activity against HIV1-B to EC50 for antiviral activity against wild type HIV1 ERS104pre; format: functional
# [14] = test system: Human immunodeficiency virus 1; experiment: Ratio of EC50 for antiviral activity against HIV1-JSL to EC50 for antiviral activity against wild type HIV1 ERS104pre; format: functional
# [15] = test system: Human immunodeficiency virus 1; experiment: Ratio of EC50 for antiviral activity against HIV1-G to EC50 for antiviral activity against wild type HIV1 ERS104pre; format: functional
# [16] = test system: Human immunodeficiency virus 1; experiment: Ratio of EC50 for antiviral activity against HIV1-C to EC50 for antiviral activity against wild type HIV1 ERS104pre; format: functional
# [17] = test system: Human immunodeficiency virus 1; experiment: Ratio of EC50 for antiviral activity against HIV1-MM to EC50 for antiviral activity against wild type HIV1 ERS104pre; format: functional
# [18] = molecular target: T1, Human immunodeficiency virus type 1 protease; experiment: Binding affinity to wild-type HIV1 protease expressed in Escherichia coli by fluorometric assay
smiles,measurement,setting,value
CC(C)(C)NC(=O)[C@@H]1C[C@@H]2CCCC[C@@H]2CN1C[C@@H](O)[C@H](Cc1ccccc1)NC(=O)[C@H](CC(N)=O)NC(=O)c1ccc2ccccc2n1,EC50,[1],33 nM
same,EC50,[2],100 nM
same,EC50,[3],270 nM
same,EC50,[4],110 nM
same,EC50,[5],4 nM
same,EC50,[6],35 nM
same,EC50,[7],290 nM
CC(C)CN(C[C@@H](O)[C@H](Cc1ccccc1)NC(=O)O[C@H]1CCOC1)S(=O)(=O)c1ccc(N)cc1,EC50,[1],310 nM
same,EC50,[2],300 nM
same,EC50,[8],> 1000 nM
same,EC50,[3],360 nM
same,EC50,[4],270 nM
same,EC50,[5],29 nM
same,EC50,[6],210 nM
same,EC50,[7],430 nM
same,EC50,[9],> 1000 nM
COc1ccc(S(=O)(=O)N(CC(C)C)C[C@@H](O)[C@H](Cc2ccccc2)n2cc(CNC(=O)c3ccc(CNC(=O)OC(C)(C)C)cc3)nn2)cc1,IC50,[10],13 nM
same,Ki,[11],4 nM
CC(C)CN(C[C@@H](O)[C@H](Cc1ccccc1)NC(=O)O[C@H]1CO[C@H]2OCC[C@H]21)S(=O)(=O)c1ccc2c(c1)OCO2,Ratio EC50,[12],6
same,EC50,[1],3.4 nM
same,Ratio EC50,[13],8
same,EC50,[2],3.2 nM
same,EC50,[3],3.9 nM
same,EC50,[4],3.8 nM
same,Ratio EC50,[14],12
same,EC50,[5],0.5 nM
same,EC50,[6],2.7 nM
same,EC50,[7],6 nM
same,Ratio EC50,[15],7
same,Ratio EC50,[16],5
same,Ratio EC50,[17],8
C[C@H](Cc1cc2c(cc1O)OCO2)[C@H](C)Cc1cc2c(cc1O)OCO2,IC50,[10],5600 nM
COc1ccc(S(=O)(=O)N(CC(C)C)C[C@@H](O)[C@H](Cc2ccccc2)n2cc(COC(=O)N[C@H]3c4ccccc4C[C@H]3O)nn2)cc1,IC50,[10],6 nM
same,Ki,[11],1.7 nM
CC(C)C[C@H](NC(=O)[C@@H](NC(=O)CCCCCCCCCCCCCCC(=O)N[C@@H](CC(N)=O)C(=O)N[C@@H](Cc1ccccc1)C(=O)O)[C@@H](C)O)C(=O)NCCc1ccc(Oc2ccc(O)cc2)cc1,IC50,[10],96 nM
O=S1(=O)N(Cc2ccccc2-c2cc3ccccc3o2)C[C@H](O)[C@@H](O)CN1Cc1ccccc1-c1cc2ccccc2o1,Ki,[18],530 nM
NC(=O)CN(Cc1ccc(N)cc1)C(=O)CN(CC1CCCCC1)C(=O)CN(Cc1ccc(N)cc1)C(=O)CCCCCCCCCCCCCCC(=O)N(CC(=O)N(CC(=O)O)Cc1ccccc1)Cc1ccc(N)cc1,Ki,[11],135 nM
O=C(Cc1cccc2ccccc12)Nc1ccccc1CN1C[C@H](O)[C@@H](O)CN(Cc2ccccc2Br)S1(=O)=O,Ki,[18],280 nM
CC(C)C[C@H](NC(=O)[C@@H](NC(=O)CCCCCCCCCCCCCCC(=O)N[C@@H](CC(N)=O)C(=O)N[C@@H](Cc1ccccc1)C(=O)O)[C@@H](C)O)C(=O)NCCc1cccc(O)c1,IC50,[10],1130 nM
O=C(Cc1cccc2ccccc12)O[C@H]1CNC[C@@H]1OC(=O)Cc1cccc2ccccc12,Ki,[11],20000 nM
COC(=O)[C@@H](NC(=O)[C@H](CC(C)C)NC(=O)[C@@H](NC(=O)CCCOc1ccc2ccc(OCCCC(=O)N[C@H](CCCCNC(=O)OCc3ccccc3)C(=O)NNC(=O)c3cc(NC(C)=O)ccc3OC)cc2c1)C(C)C)C(C)C,Ki,[11],60 nM
O=C(Cc1cccc2ccccc12)Nc1ccccc1CN1C[C@H](O)[C@@H](O)CN(Cc2ccccc2)S1(=O)=O,Ki,[18],140 nM
